Columns and labels:
MOZ enzyme = MOZ enzyme (Homo sapiens (Human), UniProt Q92794); assay: Moz biochemical assay (AlphaScreen histone H4 peptide acetylation)
Cdc6 mRNA = assay: Bioassay 2: RT-qPCR of MOZ target genes in mouse embryonic fibroblasts; assay type: cell-based; details: 5 μM
Procedure: Mouse embryonic fibroblasts are isolated from wild type or Moz heterozygous animals and cultured at 3% oxygen/5% carbon dioxide/92% nitrogen. Cells are plated at a density of 1,020 cells/cm^2 or 2,040 cells/cm^2 or 10,204 cells/cm^2. A reference value for MOZ inhibition is generated through comparison with cells with a complete null mutation of MOZ. The absence of a functional Moz gene leads to senescence in 7-14 days at 3% oxygen.
Cells are plated in triplicate at 2,040 cells/cm^2 in the presence of a test compound. Compounds are tested at 500 nM, 1 μM, 2 μM, 5 μM, 10 μM and 20 μM. Control compounds include those that have a similar structure but show no activity in biochemical assays. […] RT-qPCR is used to assay the levels of MOZ target genes Ink4a, ink4b, Arf, Cdc6, Cdca8, Cdca2, E2f2, Ezh2, Skp2 and Melk.

B cell lineage = assay: Bioassay 10: effect on the B cell lineage in treated mice; assay type: in vivo; details: for numbers of pre B cells in the bone marrow: in words, daily I.P. injection; for immature B cells, percentage of WBC per femur / mature B cells, percentage of WBC per femur / pre-B cells, percentage of WBC per femur / pro-B cells, percentage of WBC per femur: wild type mice, 50 mg/kg I.P. daily
Procedure: Mice were treated with compounds at the dosage of 50 mg/kg by I.P injection. Compounds are prepared for injection as a slurry in 50% PEG400/H2O. The effect on the B cell lineage is determined by fluorescent cytometry using characteristic cell surface markers expressed at different stages of B cell development.

wild type pro-B cells = assay: Bioassay 5: pro-B cell colony formation in methylcellulose, wild type; assay type: cell-based
Procedure: (§1) Pro-B cells are purified by positive selection using antiCD19-magnetic beads and fluorescence activated cell sorting using the criterion: cell surface expression of B220, CD19 and cKit but not IgM. After purification, 25,000 pro-B cells are seeded onto 3.5 cm culture dishes plate containing methylcellulose (MethoCult M3630, STEM CELL technologies) for 7 days. After 7 days culture, colonies in which there were more than 50 cells are counted. Subsequently, 190,000 pro-B cells are replated into methylcellulose for another 7 days of culture, followed by enumeration.

[1] = tested on: Eμ-Myc pre-leukemia pro-B cells; assay: Bioassay 5: pro-B cell colony formation in methylcellulose, Eμ-Myc; assay type: cell-based; details: 1 μM, Eμ-Myc pre-leukemia pro-B cells
Procedure: as §1

Wild type pre B cells [2] = assay: Bioassay 8: cell cycle analysis (DNA content and Ki67); assay type: cell-based; details: 1 μM
Procedure: (§2) Pre B cells are isolated from bone marrow according to the criterion: cell surface expression of B220, CD19, but not cKit or IgM. Pre-B cells are cultured on OP9 cells with IL7 in the presence of compounds at various concentrations. The stages of the cell cycle in cultured pre-B cells with and without treatment is analysed by flow cytometry using a stain for DNA content combined with the cell cycle marker Ki67 to enumerate the proportion of cells in different phases of the cell cycle.

Wild type pre B cells [3] = assay: Bioassay 7: pre-B cell number dose response, wild type; assay type: cell-based; details: in words
Procedure: Pre B cells are isolated from bone marrow according to the criterion: cell surface expression of B220, CD19, but not cKit or IgM. Pre-B cells are cultured on OP9 cells with IL7 in the presence of compounds at concentrations from 0.01 μM to 20 μM in vitro for 4 days. Cell number is then enumerated and an IC50 is calculated.

wild type pre-B cells = assay: Bioassay 9: cell cycle analysis (DNA content and BrdU); assay type: cell-based; details: 1 μM
Procedure: as §2, with “in” for “in cultured”, “using” for “by”, “cytometry to assay,” for “cytometry”, “BrdU” for “the cell cycle marker Ki67”, “determine” for “enumerate”, “S phase.” for “different phases of the cell cycle.”

INK4a and ARF null cells = assay: Bioassay 1 repeated in INK4a and ARF null cells; assay type: cell-based; details: 1 μM, 2 μM, 5 μM, 10 μM
Procedure: Cells are plated in triplicate cultures at 10,204 cells/cm^2 in the presence of a test compound. Compounds are tested at 500 nM, 1 μM, 2 μM, 5 μM, 10 μM and 20 μM. Control compounds include those that have a similar structure but show no activity in biochemical assays. After 48 hours, cells are passaged and counted, then replated at 10,204/cm^2. This procedure is continued for 336 hours. The total number of cells produced at each passage is then calculated and compared between treatment groups. […] Cells are analysed by flow cytometry for the absence of markers of apoptosis by staining with propidium iodide and FITC-conjugated annexin V. The level of DNA damaged is assessed by γH2A.X staining, a marker of DNA strand breaks.
The mechanism of action of these compounds, i.e. causing cell cycle arrest and senescence, was confirmed by repeating this assay using cells in which the INK4a/ARF pathways was inactivated by genetic deletion of a key exon common to both INK4a and the alternative splice product of the CDKN2a locus ARF.

Chain of MOZ enzyme (Q92794 whole entry, species assumed): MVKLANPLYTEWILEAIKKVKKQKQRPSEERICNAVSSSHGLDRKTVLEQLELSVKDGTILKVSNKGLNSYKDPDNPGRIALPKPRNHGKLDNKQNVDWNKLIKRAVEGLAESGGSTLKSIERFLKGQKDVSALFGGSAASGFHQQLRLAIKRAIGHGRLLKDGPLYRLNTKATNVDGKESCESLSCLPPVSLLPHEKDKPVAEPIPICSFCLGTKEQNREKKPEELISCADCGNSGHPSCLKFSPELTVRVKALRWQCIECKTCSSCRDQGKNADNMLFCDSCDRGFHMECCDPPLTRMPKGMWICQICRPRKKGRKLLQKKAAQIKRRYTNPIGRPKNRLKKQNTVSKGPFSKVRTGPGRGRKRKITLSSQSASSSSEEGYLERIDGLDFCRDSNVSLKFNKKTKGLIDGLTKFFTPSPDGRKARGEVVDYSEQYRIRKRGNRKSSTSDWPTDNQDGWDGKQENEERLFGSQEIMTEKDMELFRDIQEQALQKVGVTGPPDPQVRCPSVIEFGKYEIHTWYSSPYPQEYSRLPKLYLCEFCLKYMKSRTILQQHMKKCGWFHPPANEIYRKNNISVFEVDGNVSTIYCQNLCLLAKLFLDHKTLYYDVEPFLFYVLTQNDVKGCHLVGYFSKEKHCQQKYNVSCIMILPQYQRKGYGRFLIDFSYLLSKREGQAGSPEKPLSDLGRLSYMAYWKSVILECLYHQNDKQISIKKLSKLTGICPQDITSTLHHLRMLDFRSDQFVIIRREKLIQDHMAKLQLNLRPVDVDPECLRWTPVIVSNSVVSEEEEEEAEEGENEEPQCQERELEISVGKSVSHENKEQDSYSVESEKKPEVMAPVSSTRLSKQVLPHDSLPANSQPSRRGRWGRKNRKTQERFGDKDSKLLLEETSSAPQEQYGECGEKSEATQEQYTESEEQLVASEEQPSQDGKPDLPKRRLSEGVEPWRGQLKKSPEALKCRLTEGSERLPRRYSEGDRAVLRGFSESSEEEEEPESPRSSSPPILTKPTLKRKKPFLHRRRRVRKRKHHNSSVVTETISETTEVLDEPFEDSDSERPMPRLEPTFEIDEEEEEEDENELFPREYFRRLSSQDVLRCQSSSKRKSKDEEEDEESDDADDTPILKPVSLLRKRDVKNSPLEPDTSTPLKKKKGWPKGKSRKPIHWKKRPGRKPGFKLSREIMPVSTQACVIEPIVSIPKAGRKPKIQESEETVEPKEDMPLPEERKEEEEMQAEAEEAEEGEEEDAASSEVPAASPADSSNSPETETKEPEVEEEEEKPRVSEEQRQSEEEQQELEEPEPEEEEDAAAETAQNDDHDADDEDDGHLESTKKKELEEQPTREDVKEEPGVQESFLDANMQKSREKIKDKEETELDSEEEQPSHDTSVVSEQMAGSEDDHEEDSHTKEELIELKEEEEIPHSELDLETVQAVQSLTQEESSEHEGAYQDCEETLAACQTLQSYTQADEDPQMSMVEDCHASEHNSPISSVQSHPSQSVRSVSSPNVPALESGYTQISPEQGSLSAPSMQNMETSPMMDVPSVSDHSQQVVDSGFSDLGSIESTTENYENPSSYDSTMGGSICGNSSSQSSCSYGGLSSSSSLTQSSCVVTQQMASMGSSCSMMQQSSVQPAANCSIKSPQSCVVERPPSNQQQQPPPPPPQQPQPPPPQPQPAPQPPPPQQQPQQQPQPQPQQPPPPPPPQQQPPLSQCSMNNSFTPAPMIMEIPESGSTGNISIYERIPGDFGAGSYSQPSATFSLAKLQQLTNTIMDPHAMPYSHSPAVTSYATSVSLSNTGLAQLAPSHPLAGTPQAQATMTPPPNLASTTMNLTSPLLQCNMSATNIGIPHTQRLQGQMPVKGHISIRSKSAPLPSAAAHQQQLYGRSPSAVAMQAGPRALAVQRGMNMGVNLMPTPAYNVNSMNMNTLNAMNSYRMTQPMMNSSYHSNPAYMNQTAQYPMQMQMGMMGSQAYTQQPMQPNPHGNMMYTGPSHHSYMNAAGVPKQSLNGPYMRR

SMILES	IC50 (MOZ enzyme)	also measured
O=C(NNS(=O)(=O)c1ccccc1)c1cccc(-c2cccnc2)c1 [Compound 98]	13.1 µM	–
O=C(NNS(=O)(=O)c1ccccc1F)c1cc(F)cc(-n2cccn2)c1 [Compound 64]	–	CDC6 mRNA % control (Cdc6 mRNA): 60.9%
COc1ccccc1-c1cccc(C(=O)NNS(=O)(=O)c2ccccc2)c1 [Compound 27]	11.2 µM	–
O=C(NNS(=O)(=O)c1ccccc1)c1cccc(-c2ccc(F)cc2)c1 [Compound 25]	3.83 µM	–
CCOc1cc(C)cc(C(=O)NNS(=O)(=O)c2ccccc2F)c1 [Compound 137]	–	CDC6 mRNA % control (Cdc6 mRNA): 67.5%; numbers of pre B cells in the bone marrow (B cell lineage): markedly reduced numbers of pre B cells in the bone marrow; immature B cells, percentage of WBC per femur (B cell lineage): 3.92%; mature B cells, percentage of WBC per femur (B cell lineage): 3.16%; pre-B cells, percentage of WBC per femur (B cell lineage): 12.71%; pro-B cells, percentage of WBC per femur (B cell lineage): 1.01%
O=C(NNS(=O)(=O)c1ccccc1)c1ccnc(-c2ccccc2)c1 [Compound 106]	19 µM	–
O=C(NNS(=O)(=O)c1ccccc1)c1cc(-c2ccnnc2)ccc1F [Compound 108]	–	colony number (wild type pro-B cells; 1 μM, wild type pro-B cells, primary colonies): 245.125; colony number, secondary colony formation (wild type pro-B cells; 1 μM, wild type pro-B cells, secondary colony formation): 77; colony formation (wild type pro-B cells; in words, compared to vehicle): inactive; colony number ([1]; primary colonies): 180.5; colony number, secondary colony formation ([1]; secondary colony formation): 78; cells in G0 (Wild type pre B cells [2]; cultured for 4 days): 10.8%; cells in G1 (Wild type pre B cells [2]; cultured for 4 days): 53.7%; cells in G2/M (Wild type pre B cells [2]; cultured for 4 days): 12.1%; cells in S (Wild type pre B cells [2]; cultured for 4 days): 23.6%; cells in G0 (Wild type pre B cells [2]; cultured for 6 days): 8.6%; cells in G1 (Wild type pre B cells [2]; cultured for 6 days): 62.0%; cells in G2/M (Wild type pre B cells [2]; cultured for 6 days): 8.5%; cells in S (Wild type pre B cells [2]; cultured for 6 days): 14.7%; effect on pre B cell proliferation (Wild type pre B cells [3]): has no effect; cells in G0/G1 (BrdU) (wild type pre-B cells): 44.2; cells in G2/M (BrdU) (wild type pre-B cells): 5.2; cells in S (BrdU) (wild type pre-B cells): 46.2
O=C(NNS(=O)(=O)c1ccccc1)c1cncc(-c2ccccc2)c1 [Compound 109]	21.3 µM	–
O=C(NNS(=O)(=O)c1ccccc1)c1cc(-c2cccs2)cc(Cl)c1F [Compound 37]	85.4 µM	inhibition of cell proliferation (INK4a and ARF null cells): no inhibition of cell proliferation was detected
O=S(=O)(NNCc1cccc(-c2cccc(Cl)c2)c1)c1ccccc1 [Compound 147]	91 µM	–
Cc1cc(-c2ncccn2)cc(C(=O)NNS(=O)(=O)c2ccccc2)c1F [Compound 53]	–	CDC6 mRNA % control (Cdc6 mRNA): 62.8%
O=C(NNS(=O)(=O)c1ccccc1)c1cccc(-c2ccccc2Cl)c1 [Compound 34]	8.02 µM	–
O=C(NNS(=O)(=O)c1ccccc1)c1cccc(-c2cc[nH]n2)c1 [Compound 7]	7.44 µM	–
N#Cc1cccc(-c2cccc(C(=O)NNS(=O)(=O)c3ccccc3)c2)c1 [Compound 31]	8.55 µM	–
CC(C)c1cccc(C(=O)NNS(=O)(=O)c2ccc3ccccc3c2)c1 [Compound 3]	7.79 µM	–
O=C(NNS(=O)(=O)c1ccccc1)c1cccc(-c2ccccc2)n1 [Compound 116]	16.6 µM	–
COc1ccc(-c2cccc(C(=O)NNS(=O)(=O)c3ccccc3)c2)cc1 [Compound 26]	40 µM	–
O=C(NNS(=O)(=O)c1ccccc1)c1cccc(-c2ccc(Cl)cc2)c1 [Compound 32]	25.8 µM	–
O=C(NNS(=O)(=O)c1ccccc1F)c1cc(F)cc(-c2ccccn2)c1 [Compound 46]	–	numbers of pre B cells in the bone marrow (B cell lineage): markedly reduced numbers of pre B cells in the bone marrow; immature B cells, percentage of WBC per femur (B cell lineage): 3.33%; mature B cells, percentage of WBC per femur (B cell lineage): 3.65%; pre-B cells, percentage of WBC per femur (B cell lineage): 10.59%; pro-B cells, percentage of WBC per femur (B cell lineage): 1.14%

Second part, led by results:

IC50 (MOZ enzyme)	SMILES	also measured
2.95 µM	O=C(NNS(=O)(=O)c1ccc2ccccc2c1)c1cccc(-c2ccccc2)c1 [Compound 1]	–
2.04 µM	O=C(NNS(=O)(=O)c1ccccc1)c1cccc(I)c1 [Compound 6]	–
0.27 µM	O=C(NNS(=O)(=O)c1ccccc1)c1cccc(-c2ccccc2)c1F [Compound 33]	–
0.195 µM	Cc1cccc(C(=O)NNS(=O)(=O)c2ccc3ccccc3c2)c1F [Compound 4]	–
0.01 µM	Cc1cc(-c2ccccc2)c(F)c(C(=O)NNS(=O)(=O)c2ccccc2)c1F [Compound 154]	–
1.77 µM	Cc1cccc(C(=O)NNS(=O)(=O)c2ccc3ccccc3c2)c1 [Compound 148]	–
0.071 µM	Cc1cc(-n2cccn2)c(F)c(C(=O)NNS(=O)(=O)c2ccccc2)c1F [Compound 155]	–
0.548 µM	O=C(NNS(=O)(=O)c1ccccc1)c1cccc(-c2ccccc2F)c1 [Compound 29]	–
0.47 µM	O=C(NNS(=O)(=O)c1ccccc1)c1cccc(-c2cccs2)c1 [Compound 14]	–
0.839 µM	O=C(NNS(=O)(=O)c1ccccc1)c1cc(-c2ccc(F)cc2)ccc1F [Compound 133]	–
0.162 µM	O=C(NNS(=O)(=O)c1ccccc1)c1cccc(-c2ccsc2)c1 [Compound 8]	–
0.017 µM	O=C(NNS(=O)(=O)c1ccccc1)c1cc(-c2ccccc2)ccc1F [Compound 157]	–
3.21 µM	COc1cccc(-c2cccc(C(=O)NNS(=O)(=O)c3ccccc3)c2)c1 [Compound 28]	–
0.082 µM	O=C(NNS(=O)(=O)c1ccccc1)c1cc(-c2ccccc2)cc(Cl)c1F [Compound 35]	–
0.116 µM	O=C(NNS(=O)(=O)c1ccccc1F)c1cccc(OCC2CC2)c1 [Compound 90]	–
0.287 µM	O=C(NNS(=O)(=O)c1ccccc1)c1cccc(-c2ccccc2)c1 [Compound 2]	–
0.721 µM	O=C(NNS(=O)(=O)c1ccccc1)c1cccc(-c2cccc(F)c2)c1 [Compound 30]	–

Reference: patent US10829446B2, “Aryl sulfonohydrazides” (MONASH UNIVERSITY, priority 2015, dated 2020)
